US20150141381A1, “TETRACYCLINE COMPOUNDS HAVING TARGET THERAPEUTIC ACTIVITIES” (Paratek Pharmaceuticals, Inc., priority 2001, published 2015)
Like-named read-outs stand apart in the source and are kept apart here.

What was measured:
[1] = test system: E. coli mL308 225; assay: In Vitro Anti-Bacterial Activity Assay (MIC), gram negative; format: cell-based; conditions: for MIC: Escherichia coli, ML308225, 18 h
[2] = test system: S. aureus RN450; assay: In Vitro Anti-Bacterial Activity Assay (MIC), gram positive; format: cell-based; conditions: for MIC: Staphylococcus aureus, RN450, 18 h
[3] = test system: cultured murine cortical neurons; assay: Protection of Cultured Cortical Neurons from Excitotoxic Injury Induced by NMDA (NE Assay); format: cell-based, mice; conditions: NMDA 62.5 μM, LDH release 24 hours after starting the exposure
Description: Primary cortical astrocyte cultures were prepared from one-day old mice, as described in the literature procedure (Tikka, T M et al. J Immunol. 2001 Jun. 15; 166(12):7527-33). After decapitation, the forebrain cortices were collected, cleaned from meninges and, after mincing, dissociated by incubation in papain/Dnase solution followed by trituration. The dissociated cells were suspended in a culture medium consisting of Eagle's minimal essential medium (MEM) with 10% heat-inactivated fetal bovine serum and glutamine (2 mM) and plated in 75 cm^2 cell culture flasks. The medium was replaced with fresh culture medium at day 7. At confluence (day 12-15), the astrocytes were trypsinized and re-plated into 24-well culture vessels. On day 7-8, the neurons were cultured on top of these confluent astrocyte monolayers.
Cortical neuron suspensions were prepared from embryonic day 17 mice. The cortices were collected and meninges removed. The tissue was minced into small pieces and incubated in trypsin solution. The tissue was suspended using a pipette and after centrifugation resuspended and plated on top of astrocyte cultures at a density of 250,000 cells/well to 24-well culture vessel in Eagle's minimal essential medium (MEM, Earle's salts) supplemented with 20 mM glucose, 2 mM glutamine, 10% fetal bovine serum, and 10% heat-inactivated horse serum (HS). Medium was changed after 5 days to MEM containing 20 mM glucose, 2 mM glutamine, and 10% HS, as well as cytosine arabinoside (final concentration 10 μM) to inhibit cell division, and incubated for 2 days. Subsequently, cultures were fed twice weekly with MEM supplemented with 20 mM glucose, 2 mM glutamine and 10% HS, and used at day 12-15.
On the day of experiment, the culture medium was replaced with 1) MEM, 2) MEM containing the test tetracycline compounds. Positive control drug included 10 μM MK-801 (Sigma). […] As a control for total neuronal death, a 24 hour incubation with 500 μM NMDA was used (100% cell death control).
The cell viability was assessed by measuring lactate dehydrogenase (LDH) release 24 hours after starting the exposure. The LDH release to the culture medium was measured from cell-free medium using Sigma LDH reagent employing kinetic measurement of conversion of lactate to pyruvate using NADH as a cofactor. The rate of increase in absorbance at 340 nm was directly proportional to the activity of LDH in the sample, and was measured with a Labsystems Multiskan ELISA reader.

[4] = MIC class, Table 3, read-out: Antibiotic Activity Gram −
[5] = MIC class, Table 3, read-out: Antibiotic Activity Gram +
[6] = gram negative bacteria, read-out: Antibiotic Activity Gram − (MIC)
[7] = gram positive bacteria, read-out: Antibiotic Activity Gram + (MIC)

Row | Compound | MIC [1, 4] [mg/L] | MIC [2, 5] [mg/L] | neuroprotection (cell viability by LDH release) [3] | MIC [1, 6] [mg/L] | MIC [2, 7] [mg/L] | other results
1 | CN(C)CCCOC(=O)/C=C/c1ccc(O)c2c1C[C@H]1C[C@H]3[C@H](N(C)C)C(O)=C(C(N)=O)C(=O)[C@@]3(O)C(O)=C1C2=O [BP] | < 4 | < 4 | good neuroprotection | – | – | –
2 | CN(C)c1cc(NC(=O)Nc2ccc([N+](=O)[O-])cc2)c(O)c2c1C[C@H]1C[C@H]3[C@@H](N(C)C)C(O)=C(C(N)=O)C(=O)[C@@]3(O)C(O)=C1C2=O [CD] | > 4 | < 4 | good neuroprotection | – | – | –
3 | CN(C)[C@@H]1C(O)=C(C(N)=O)C(=O)[C@@]2(O)C(O)=C3C(=O)c4c(O)ccc(/C=C/C(=O)NC(C)(C)C)c4C[C@H]3C[C@@H]12 [CW] | > 4 | < 4 | good neuroprotection | – | – | –
4 | C=C1c2cccc(O)c2C(=O)C2=C(O)[C@]3(O)C(=O)C(C(N)=O)=C(O)[C@@H](N(C)C)[C@@H]3[C@@H](O)[C@H]12 [C] | > 4 | > 4 | good neuroprotection | – | – | –
5 | CN(C)c1cc(NCc2ccc3c(c2)OCO3)c(O)c2c1C[C@H]1C[C@H]3[C@H](N(C)C)C(O)=C(C(N)=O)C(=O)[C@@]3(O)C(O)=C1C2=O [EV] | > 4 | > 4 | good neuroprotection | – | – | –
6 | CN(C)c1cc(NC(=O)Nc2cccc(F)c2)c(O)c2c1C[C@H]1C[C@H]3[C@@H](N(C)C)C(O)=C(C(N)=O)C(=O)[C@@]3(O)C(O)=C1C2=O [H] | > 4 | < 4 | good neuroprotection | – | – | –
7 | CN(C)[C@@H]1C(O)=C(C(N)=O)C(=O)[C@@]2(O)C(O)=C3C(=O)c4c(O)c(C(C)(C)C)cc(CN)c4C[C@H]3C[C@@H]12 [IE] | > 4 | > 4 | good neuroprotection | – | – | –
8 | CN(C)[C@H]1C(O)=C(C(N)=O)C(=O)[C@@]2(O)C(O)=C3C(=O)c4c(O)c(CN)cc(-c5ccccc5)c4C[C@H]3C[C@@H]12 [JC] | > 4 | > 4 | good neuroprotection | – | – | –
9 | CN(C)C1C(O)=C(C(N)=O)C(=O)[C@@]2(O)C(O)=C3C(=O)c4c(O)ccc(CNCC(C)(C)C)c4C[C@H]3C[C@@H]12 (stereo partly shown) [JD] | < 4 | < 4 | good neuroprotection | – | – | –
10 | CN(C)Cc1ccc(O)c2c1C[C@H]1C[C@H]3[C@@H](N(C)C)C(O)=C(C(N)=O)C(=O)[C@@]3(O)C(O)=C1C2=O [KF] | < 4 | < 4 | good neuroprotection | – | – | –
11 | CCC(=O)O[C@H]1[C@H]2C(=C(O)[C@]3(O)C(=O)C(C(N)=O)=C(O)[C@@H](N(C)C)[C@H]13)C(=O)c1c(O)cccc1[C@@H]2C [M] | > 4 | < 4 | good neuroprotection | – | – | –
12 | CN(C)[C@@H]1C(O)=C(C(N)=O)C(=O)[C@@]2(O)C(O)=C3C(=O)c4c(O)ccc(-c5ccc6c(c5)OCO6)c4C[C@H]3C[C@@H]12 [drawing 3479] | – | – | – | < 4 | < 4 | –
13 | CC(C)CNCc1cc(N(C)C)c2c(c1O)C(=O)C1=C(O)[C@]3(O)C(=O)C(C(N)=O)=C(O)[C@@H](N(C)C)[C@@H]3C[C@@H]1C2 [drawing 3497] | – | – | – | – | – | Antibiotic Activity Gram − (MIC) ([1]; gram negative bacteria): * (compounds with an MIC of greater than 4 μg/ml are indicated with *); Antibiotic Activity Gram + (MIC) ([2]; gram positive bacteria): ** (compounds with MIC less than or equal to 4 μg/ml are indicated with **)
14 | CN(C)[C@@H]1C(O)=C(C(N)=O)C(=O)[C@@]2(O)C(O)=C3C(=O)c4c(O)ccc(-c5ccc(CNCC(F)(F)F)cc5)c4C[C@H]3C[C@@H]12 [drawing 3505] | – | – | – | < 4 | < 4 | –
15 | CN(C)[C@@H]1C(O)=C(C(N)=O)C(=O)[C@@]2(O)C(O)=C3C(=O)c4c(O)ccc(-c5ccc(CNCC(F)(F)F)cc5)c4C[C@H]3C[C@@H]12 [drawing 3506] | – | – | – | – | – | Antibiotic Activity Gram − (MIC) ([1]; gram negative bacteria): ** (compounds with MIC less than or equal to 4 μg/ml are indicated with **); Antibiotic Activity Gram + (MIC) ([2]; gram positive bacteria): ** (compounds with MIC less than or equal to 4 μg/ml are indicated with **)
16 | CN(C)[C@@H]1C(O)=C(C(N)=O)C(=O)[C@@]2(O)C(O)=C3C(=O)c4c(O)ccc(N5CCOCC5)c4C[C@H]3C[C@@H]12 [drawing 3548] | – | – | – | < 4 | < 4 | –
17 | CCCOc1cccc2c1C(=O)C1=C(O)[C@]3(O)C(=O)C(C(N)=O)=C(O)[C@@H](N(C)C)[C@@H]3C[C@@H]1C2 [drawing 3578] | – | – | – | > 4 | > 4 | –
18 | CCCOc1cccc2c1C(=O)C1=C(O)[C@]3(O)C(=O)C(C(N)=O)=C(O)[C@@H](N(C)C)[C@@H]3C[C@@H]1C2 [drawing 3586] | – | – | – | – | – | Antibiotic Activity Gram − (MIC) ([1]; gram negative bacteria): * (compounds with an MIC of greater than 4 μg/ml are indicated with *); Antibiotic Activity Gram + (MIC) ([2]; gram positive bacteria): * (compounds with an MIC of greater than 4 μg/ml are indicated with *)
19 | CN(C)[C@@H]1C(O)=C(C(N)=O)C(=O)[C@@]2(O)C(O)=C3C(=O)c4c(O)c(CN5CCCCC5)cc(-c5ccoc5)c4C[C@H]3C[C@@H]12 [drawing 3602] | – | – | – | > 4 | < 4 | –
20 | C[C@H]1c2cccc(O)c2C(=O)C2=C(O)[C@]3(O)C(=O)C(C(N)=O)=C(O)[C@@H](N(C)C)[C@@H]3[C@@H](O)[C@@H]21 [drawing 3660] | – | – | – | > 4 | < 4 | –
21 | C[C@H]1c2ccc(CNCC(C)(C)C)c(O)c2C(=O)C2=C(O)[C@]3(O)C(=O)C(C(N)=O)=C(O)[C@@H](N(C)C)[C@@H]3[C@@H](O)[C@@H]21 [drawing 3661] | – | – | – | > 4 | > 4 | –
22 | C[C@H]1c2cccc(O)c2C(=O)C2=C(O)[C@]3(O)C(=O)C(C(N)=O)=C(O)[C@@H](N(C)C)[C@@H]3[C@@H](O)[C@@H]21 [drawing 3668] | – | – | – | – | – | Antibiotic Activity Gram − (MIC) ([1]; gram negative bacteria): * (compounds with an MIC of greater than 4 μg/ml are indicated with *); Antibiotic Activity Gram + (MIC) ([2]; gram positive bacteria): ** (compounds with MIC less than or equal to 4 μg/ml are indicated with **)
23 | CN(C)c1cc(CNCCC(F)(F)F)c(O)c2c1C[C@H]1C[C@H]3[C@H](N(C)C)C(O)=C(C(N)=O)C(=O)[C@@]3(O)C(O)=C1C2=O [drawing 3671] | – | – | – | < 4 | < 4 | –
24 | CN(C)c1cc(CNCCC(F)(F)F)c(O)c2c1C[C@H]1C[C@H]3[C@H](N(C)C)C(O)=C(C(N)=O)C(=O)[C@@]3(O)C(O)=C1C2=O [drawing 3690] | – | – | – | – | – | Antibiotic Activity Gram − (MIC) ([1]; gram negative bacteria): ** (compounds with MIC less than or equal to 4 μg/ml are indicated with **); Antibiotic Activity Gram + (MIC) ([2]; gram positive bacteria): ** (compounds with MIC less than or equal to 4 μg/ml are indicated with **)
25 | CCc1cc(CN2CCC(F)(F)CC2)c(O)c2c1C[C@H]1C[C@H]3[C@H](N(C)C)C(O)=C(C(N)=O)C(=O)[C@@]3(O)C(O)=C1C2=O [drawing 3695] | – | – | – | < 4 | < 4 | –
26 | CCc1cc(CN2CCC(F)(F)CC2)c(O)c2c1C[C@H]1C[C@H]3[C@H](N(C)C)C(O)=C(C(N)=O)C(=O)[C@@]3(O)C(O)=C1C2=O [drawing 3696] | – | – | – | – | – | Antibiotic Activity Gram − (MIC) ([1]; gram negative bacteria): ** (compounds with MIC less than or equal to 4 μg/ml are indicated with **); Antibiotic Activity Gram + (MIC) ([2]; gram positive bacteria): ** (compounds with MIC less than or equal to 4 μg/ml are indicated with **)
27 | Cc1cnc(N)n1Cc1cc(N(C)C)c2c(c1O)C(=O)C1=C(O)[C@]3(O)C(=O)C(C(N)=O)=C(O)[C@@H](N(C)C)[C@@H]3C[C@@H]1C2 [drawing 3711] | – | – | – | > 4 | < 4 | –
28 | Cc1cnc(N)n1Cc1cc(N(C)C)c2c(c1O)C(=O)C1=C(O)[C@]3(O)C(=O)C(C(N)=O)=C(O)[C@@H](N(C)C)[C@@H]3C[C@@H]1C2 [drawing 3712] | – | – | – | – | – | Antibiotic Activity Gram − (MIC) ([1]; gram negative bacteria): * (compounds with an MIC of greater than 4 μg/ml are indicated with *); Antibiotic Activity Gram + (MIC) ([2]; gram positive bacteria): * (compounds with an MIC of greater than 4 μg/ml are indicated with *)
